Laboratory results taken from article PMC3493529, “Molecular and Pharmacological Characterization of Serotonin 5-HT2α and 5-HT7 Receptors in the Salivary Glands of the Blowfly Calliphora vicina” (PLoS ONE, 2012).
Read-outs that look alike come from different tables or passages of the source.

Legend:
Cv5-HT7 [1] = target: T1, Cv5-HT7 (Calliphora vicina, UniProt I7IA71); test: cAMP-dependent CNG channel Ca2+ influx (Fluo-4) in Cv5-HT7-expressing flpTM cells, agonists; assay type: cell-based; conditions: for EC50 / Cv5-HT7 log EC50: Cv5-HT7-expressing flpTM cells, 100 µM IBMX
T1 sequence (I7IA71 entry or part of it): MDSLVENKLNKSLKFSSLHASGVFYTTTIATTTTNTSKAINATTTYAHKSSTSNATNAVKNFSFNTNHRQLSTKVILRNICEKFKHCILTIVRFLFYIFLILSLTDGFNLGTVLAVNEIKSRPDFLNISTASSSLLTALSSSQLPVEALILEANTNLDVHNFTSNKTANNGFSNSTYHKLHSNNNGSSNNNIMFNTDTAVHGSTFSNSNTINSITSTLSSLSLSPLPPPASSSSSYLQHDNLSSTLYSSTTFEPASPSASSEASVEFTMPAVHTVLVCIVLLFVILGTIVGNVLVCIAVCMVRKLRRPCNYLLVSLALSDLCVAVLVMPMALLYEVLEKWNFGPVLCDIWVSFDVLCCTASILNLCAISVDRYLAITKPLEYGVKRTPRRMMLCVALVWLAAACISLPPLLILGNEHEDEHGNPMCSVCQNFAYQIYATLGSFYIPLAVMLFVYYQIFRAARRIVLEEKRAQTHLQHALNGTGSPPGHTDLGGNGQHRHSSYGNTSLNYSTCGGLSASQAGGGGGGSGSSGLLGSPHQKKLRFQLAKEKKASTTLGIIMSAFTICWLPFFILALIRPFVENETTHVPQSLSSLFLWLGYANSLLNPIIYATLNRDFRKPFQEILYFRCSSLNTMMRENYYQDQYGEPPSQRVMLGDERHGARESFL
Procedure: (§1) We applied a previously established protocol to generate cell lines that constitutively expressed either Cv5-HT2α or Cv5-HT7. […] (flpTM cells, provided by Sibion biosciences GmbH, Jülich, Germany). Approximately 8 µg of the respective expression vectors were introduced into ∼4×10^5 cells by a modified calcium-phosphate method. Stably transfected cells were selected in the presence of the antibiotics Blasticidin (0.1 mg/ml; Cv5-HT2α) or G418 (0.8 mg/ml; Cv5-HT7). Expression of Cv5-HT2α and Cv5-HT7 was monitored by Western blotting with commercially available anti-His antibodies (anti-6x His Epitope Tag; Rockland Immunochemicals Inc, Gilbertsville, USA) and anti-HA antibodies (clone 3F10; Roche, Penzberg, Germany), respectively.
(§2) The ability of Cv5-HT2α to induce Ca^2+ signals in the transfected cell line was measured with the Ca^2+-sensitive dye Fluo-4. Similarly, Cv5-HT7-induced cAMP production was indirectly monitored by the cAMP-dependent activation of the cyclic nucleotide-gated ion channel in flpTM cells (see above). The cyclic nucleotide-gated ion channel is permeable to Ca^2+ ions and thus an increase in [cAMP]i leads to an influx of Ca^2+ ions, which can be detected with Fluo-4. […] After 1 h, the loading solution was substituted for dye-free ES. To inhibit cAMP hydrolysis in Cv5-HT7-expressing cells, ES containing 100 µM isobutylmethylxanthine (IBMX) was used. Plates were transferred into a fluorescence reader (FLUOstar Omega; bmg, Offenburg, Germany) and Fluo-4 fluorescence was monitored. […] Fluorescence emission was detected at 520 nm. Once the basal fluorescence in each well had reached a stable value, various concentrations of the respective ligands were added. The resulting changes in Fluo-4 fluorescence were recorded automatically.

Cv5-HT2α [2] = target: T2, Cv5-HT2α (Calliphora vicina, UniProt I7JA47); test: Ca2+ signals (Fluo-4) in Cv5-HT2α-expressing HEK 293 cells, agonists; assay type: cell-based; conditions: for effect on [Ca2+]i in Cv5-HT2α-expressing cells: 1 µM biogenic amine, non-transfected cells as control; for EC50 / Cv5-HT2α EC50 / Cv5-HT2α log EC50: Cv5-HT2α-expressing HEK 293 cells; for Cv5-HT2α EC50 / Cv5-HT2α log EC50: Ca2+-dependent Fluo-4 signal
T2 sequence (I7JA47 entry or part of it): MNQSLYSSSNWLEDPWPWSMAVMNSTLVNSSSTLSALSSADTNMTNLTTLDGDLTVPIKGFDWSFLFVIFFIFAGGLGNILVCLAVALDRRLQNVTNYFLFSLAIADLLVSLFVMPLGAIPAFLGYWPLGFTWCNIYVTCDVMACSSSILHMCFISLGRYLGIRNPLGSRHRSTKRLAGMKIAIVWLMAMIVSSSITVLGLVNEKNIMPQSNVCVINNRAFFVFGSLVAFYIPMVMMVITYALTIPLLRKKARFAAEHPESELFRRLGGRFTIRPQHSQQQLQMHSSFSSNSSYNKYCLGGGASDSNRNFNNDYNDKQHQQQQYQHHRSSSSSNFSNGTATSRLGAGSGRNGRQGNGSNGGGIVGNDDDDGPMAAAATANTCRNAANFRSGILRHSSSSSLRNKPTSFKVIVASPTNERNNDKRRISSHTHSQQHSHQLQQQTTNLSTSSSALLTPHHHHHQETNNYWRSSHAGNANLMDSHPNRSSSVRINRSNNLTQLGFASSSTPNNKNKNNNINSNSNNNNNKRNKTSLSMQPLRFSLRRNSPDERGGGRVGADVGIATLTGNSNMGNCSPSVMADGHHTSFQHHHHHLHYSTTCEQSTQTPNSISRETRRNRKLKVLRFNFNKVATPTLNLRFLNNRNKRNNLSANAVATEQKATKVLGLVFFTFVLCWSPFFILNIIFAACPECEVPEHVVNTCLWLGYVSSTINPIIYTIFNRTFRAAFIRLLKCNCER
Procedure: as §1, §2

Cv5-HT7 [3] = target: T1, Cv5-HT7; test: Direct cAMP quantification (cAMP-Screen System) in Cv5-HT7-expressing cells; assay type: cell-based; conditions: 1 µM biogenic amine; 100 µM IBMX
Procedure: The Cv5-HT7-expressing cell line was also used to determine receptor-induced cAMP production in response to various biogenic amines directly. Assays to quantify cAMP amounts were performed as described earlier by using the cAMP-Screen System (Applied Biosystems, Darmstadt, Germany).

blowfly salivary glands [4] = test: Transepithelial potential (TEP) of blowfly salivary glands, agonists; assay type: cell-based, Calliphora vicina; parameters: key to negative TEP phase / positive TEP phase: ++: high amplitude; +: low amplitude; -: no apparent effect; -/+: variable effect
Procedure: The abdominal portions of salivary glands were dissected in physiological saline (in mM: 128 NaCl, 10 KCl, 2 CaCl2, 2.7 MgCl2, 3 Na-glutamate, 2.8 maleic acid, 10 D-glucose and 10 Tris-HCl, pH 7.2). Measurements of transepithelial potential (TEP) were performed by the oil-gap method with a DPA-2F differential amplifier (npi Electronic Instruments, Tamm, Germany). Data were sampled and digitized at 1 Hz (KUSB-3102 module for AD-conversion; Keithley, Germering, Germany) by using the software TestPoint (v4.1; Capital Equipment Corp, Billerica, MA, USA) for data acquisition and storage.

blowfly salivary glands [5] = system: blowfly salivary glands; parameters: method as in PMID 6272697, PMID 4339528, PMID 16621952; conditions: cAMP formation, electrical response, luminal acidification and fluid secretion; read-out: 5-HT concentration eliciting the half-maximal effect in blowfly salivary glands; cited from earlier work
salivary glands = system: salivary glands; parameters: method as in PMID 9097929; conditions: read-out: EC50 of Ca2+ responses in salivary glands; cited from earlier work
Cv5-HT2α [6] = target: T2, Cv5-HT2α; test: Inhibition of 5-HT-induced Ca2+ signals in Cv5-HT2α-expressing cells; assay type: cell-based
Procedure: as §1, with “Cv5-HT7. For Cv5-HT2α expression, human embryonic kidney cells (HEK 293; ECACC, Salisbury, UK) were chosen.” for “Cv5-HT7.”
(§3) The ability of Cv5-HT2α to induce Ca^2+ signals in the transfected cell line was measured with the Ca^2+-sensitive dye Fluo-4. Similarly, Cv5-HT7-induced cAMP production was indirectly monitored by the cAMP-dependent activation of the cyclic nucleotide-gated ion channel in flpTM cells (see above). The cyclic nucleotide-gated ion channel is permeable to Ca^2+ ions and thus an increase in [cAMP]i leads to an influx of Ca^2+ ions, which can be detected with Fluo-4. Cells were grown in 96-well plates to a density of ∼3×10^4 (Cv5-HT2α) or 1.5×10^4 (Cv5-HT7) and then incubated in extracellular solution (ES in mM: 120 NaCl, 5 KCl, 2 CaCl2, 2 MgCl2, 10 glucose, 10 HEPES, pH 7.4) containing 3 mM probenecid, 0.02% (w/v) Pluronic® F-127 (Sigma) and 2 µM Fluo-4AM (Invitrogen). After 1 h, the loading solution was substituted for dye-free ES. To inhibit cAMP hydrolysis in Cv5-HT7-expressing cells, ES containing 100 µM isobutylmethylxanthine (IBMX) was used. Plates were transferred into a fluorescence reader (FLUOstar Omega; bmg, Offenburg, Germany) and Fluo-4 fluorescence was monitored. The excitation wavelength was 485 nm. Fluorescence emission was detected at 520 nm. Once the basal fluorescence in each well had reached a stable value, various concentrations of the respective ligands were added. The resulting changes in Fluo-4 fluorescence were recorded automatically.
(§4) Changes in Ca^2+-dependent Fluo-4 signals were registered automatically. Data represent the means±SD of eight replicates. […] Relative fluorescence (%) is normalized to the values obtained with 100 nM 5-HT in the absence of antagonists. […] Relative fluorescence (%) is normalized to the values obtained with 6 nM 5-HT in the absence of antagonists.

Cv5-HT7 [7] = target: T1, Cv5-HT7; test: Inhibition of 5-HT-induced Fluo-4 signals in Cv5-HT7-expressing cells; assay type: cell-based; conditions: in the presence of 6 nM 5-HT
Procedure: as §1, with “Cv5-HT7. For Cv5-HT2α expression, human embryonic kidney cells (HEK 293; ECACC, Salisbury, UK) were chosen.” for “Cv5-HT7.”
as §3, §4

[8] = Fluo-4 signal, read-out: Cv5-HT7 EC50
[9] = Cv5-HT2α EC50, Ca2+-dependent Fluo-4 signal
[10] = Cv5-HT2α log EC50, Ca2+-dependent Fluo-4 signal
[11] = Cv5-HT7 log EC50, Fluo-4 signal

NCCc1c[nH]c2ccc(O)cc12 [5-HT, 5-hydroxytryptamine]
EC50 (Cv5-HT7 [1]; [8]): 4 nM
EC50 (Cv5-HT7 [1]; Fluo-4 signal, read-out: Cv5-HT7 log EC50 (converted)): 4.07 nM
effect on [Ca2+]i in Cv5-HT2α-expressing cells (Cv5-HT2α [2]): increase of [Ca^2+]i
EC50 (Cv5-HT2α [2]; [9]): 24 nM
EC50 (Cv5-HT2α [2]; [10]): 24 nM
effect on [cAMP]i in Cv5-HT7-expressing cells (Cv5-HT7 [3]): rise of [cAMP]i
TEP change of salivary glands (blowfly salivary glands [4]; 30 nM): characteristic biphasic change in the TEP
EC50 (blowfly salivary glands [5]): 1 to 6 nM
EC50 (salivary glands): 2.8 nM

COc1ccc2[nH]cc(CCN)c2c1 [5-MeOT, 5-methoxytryptamine]
EC50 (Cv5-HT7 [1]; Cv5-HT7 EC50, Fluo-4 signal): 950 nM
EC50 (Cv5-HT7 [1]; [11]): 955 nM
EC50 (Cv5-HT2α [2]; [9]): 67 nM
EC50 (Cv5-HT2α [2]; [10]): 67.6 nM
TEP change of salivary glands (blowfly salivary glands [4]; 30 nM or 100 nM): only a negative-going TEP change
negative TEP phase (blowfly salivary glands [4]; 0.03-0.1 µM): ++
positive TEP phase (blowfly salivary glands [4]; 0.03-0.1 µM): -
reversibility (blowfly salivary glands [4]; 0.03-0.1 µM): yes
negative TEP phase (blowfly salivary glands [4]; 1-100 µM): ++
positive TEP phase (blowfly salivary glands [4]; 1-100 µM): +
reversibility (blowfly salivary glands [4]; 1-100 µM): yes
TEP change of salivary glands (blowfly salivary glands [4]; 1–100 µM): biphasic response

Cc1nn(C)c(C)c1-c1cccc2c1CC[C@H](N(C)C)C2 [AS 19, (2S)-(+)-5-(1,3,5-Trimethylpyrazol-4-yl)-2-(dimethylamino)tetralin]
Cv5-HT7 log EC50 (Cv5-HT7 [1]; Fluo-4 signal): −6.52±0.04
EC50 (Cv5-HT7 [1]; [8]): 300 nM
Cv5-HT2α EC50 (Cv5-HT2α [2]): no effect
Cv5-HT2α log EC50 (Cv5-HT2α [2]): no effect
negative TEP phase (blowfly salivary glands [4]; 100 µM): -
positive TEP phase (blowfly salivary glands [4]; 100 µM): -/+
reversibility (blowfly salivary glands [4]; 100 µM): yes
TEP change of salivary glands (blowfly salivary glands [4]; 1–100 µM): only positive-going changes in the TEP

CCN(CC)C(=O)N[C@H]1C=C2c3cccc4[nH]cc(c34)C[C@H]2N(C)C1 [R(+)-lisuride]
Cv5-HT7 log EC50 (Cv5-HT7 [1]; Fluo-4 signal): −8.75±0.05
EC50 (Cv5-HT7 [1]; [8]): 2 nM
efficacy at Cv5-HT7 compared to 5-HT (Cv5-HT7 [1]; highest agonist concentrations, normalized to 5-HT maximum): very low efficacy
Cv5-HT2α EC50 (Cv5-HT2α [2]): no effect
Cv5-HT2α log EC50 (Cv5-HT2α [2]): no effect
TEP change of salivary glands (blowfly salivary glands [4]; 30 nM): irreversible positive-going TEP change
negative TEP phase (blowfly salivary glands [4]; 0.03-0.3 µM): -
positive TEP phase (blowfly salivary glands [4]; 0.03-0.3 µM): ++
reversibility (blowfly salivary glands [4]; 0.03-0.3 µM): no (within 20 min)

NCCc1ccc(O)c(O)c1 [dopamine]
effect on [Ca2+]i in Cv5-HT2α-expressing cells (Cv5-HT2α [2]): only 5-HT led to an increase of [Ca^2+]i
effect on [cAMP]i in Cv5-HT7-expressing cells (Cv5-HT7 [3]): only 5-HT led to a rise of [cAMP]i

CC[C@@H](CO)NC(=O)[C@@H]1C=C2c3cccc4c3c(cn4C)C[C@H]2N(C)C1 [methysergide]
EC50 (Cv5-HT7 [1]; Cv5-HT7 EC50, Fluo-4 signal): 770 nM
EC50 (Cv5-HT7 [1]; [11]): 776 nM
Cv5-HT2α EC50 (Cv5-HT2α [2]): no effect
Cv5-HT2α log EC50 (Cv5-HT2α [2]): no effect
IC50 (Cv5-HT2α [6]; Cv5-HT2α IC50, in the presence of 100 nM 5-HT): 20000 nM
IC50 (Cv5-HT2α [6]; Cv5-HT2α log IC50, in the presence of 100 nM 5-HT): 19500 nM
TEP change of salivary glands (blowfly salivary glands [4]; 3 µM): complex biphasic TEP responses
negative TEP phase (blowfly salivary glands [4]; 3 µM): +
reversibility (blowfly salivary glands [4]; 3 µM): yes
Cv5-HT7 IC50 (Cv5-HT7 [7]): agonistic effect
Cv5-HT7 log IC50 (Cv5-HT7 [7]): agonistic effect

NCC(O)c1ccc(O)cc1 (stereo not shown) [octopamine]
effect on [Ca2+]i in Cv5-HT2α-expressing cells (Cv5-HT2α [2]): only 5-HT led to an increase of [Ca^2+]i
effect on [cAMP]i in Cv5-HT7-expressing cells (Cv5-HT7 [3]): only 5-HT led to a rise of [cAMP]i

NCCc1ccc(O)cc1 [tyramine]
effect on [Ca2+]i in Cv5-HT2α-expressing cells (Cv5-HT2α [2]): only 5-HT led to an increase of [Ca^2+]i
effect on [cAMP]i in Cv5-HT7-expressing cells (Cv5-HT7 [3]): only 5-HT led to a rise of [cAMP]i
